Data as given in patent US7825160B2, “(Biphenyl) carboxylic acids and derivatives thereof” (Cellzome Limited, priority 2004, dated 2010).
pIC50: −log10 of the molar value.

tested on: γ-secretase activity; experiment: Screening for γ-secretase-modulating activity in SKN neuroblastoma cells carrying APP swedish mutant; format: cell-based; settings: read-out: IC50 on the γ-secretase activity, Activity range
Description: Screening was carried out using SKN neuroblastoma cells carrying the APP-“swedish mutant” (point mutations at position 595 and 596, numbering based on APP695) grown in DMEM/NUT-mix F12 (HAM) provided by Gibco (cat no. 31330-38) containing 5% Serum/Fe supplemented with 1% non-essential amino acids, 100 U/ml Pen/Strep.
Cells were grown to near confluency.
The screening was performed using the assay as described in Citron et al (1997) Nature Medicine 3: 67.
IC50-Values of Selected Compounds of the Invention on the γ-Secretase Activity.

pIC50 | SMILES
4.00 to 5.00 | O=C(O)Cc1cc(OCc2ccccc2)cc(-c2cccc(F)c2)c1 [XXXVI, (5-Benzyloxy-3′-fluoro-biphenyl-3-yl)-acetic acid]
5.00 to 6.00 | O=C(O)Cc1cc(OCc2cccc(Cl)c2)cc(-c2ccc(C(F)(F)F)cc2)c1 [LIX, [5-(3-Chloro-benzyloxy)-4′-trifluoromethyl-biphenyl-3-yl]-acetic acid]
3.52 to 4.00 | CN(C)C(=O)c1ccc(COc2cc(CC(=O)O)cc(-c3ccc(C(F)(F)F)cc3)c2)cc1 [LIII, [5-(4-Dimethylcarbamoyl-benzyloxy)-4′-trifluoromethyl-biphenyl-3-yl]-acetic acid]
4.00 to 5.00 | O=C(O)Cc1cc(OCC2CCOCC2)cc(-c2ccc(C(F)(F)F)cc2)c1 [XLV, [5-(Tetrahydro-pyran-4-ylmethoxy)-4′-trifluoromethyl-biphenyl-3-yl]-acetic acid]
4.00 to 5.00 | CC(C)Oc1ccc(-c2cc(CC(=O)O)cc(OCc3ccccc3)c2)cc1 [XXVI, (5-Benzyloxy-4′-isopropoxy-biphenyl-3-yl)-acetic acid]
3.52 to 4.00 | O=C(O)Cc1cc(OCC2CCCCO2)cc(-c2ccc(C(F)(F)F)cc2)c1 (stereo not shown) [LII, [5-(Tetrahydro-pyran-2-ylmethoxy)-4′-trifluoromethyl-biphenyl-3-yl]-acetic acid]
5.00 to 6.00 | O=C(O)Cc1cc(OCc2ccccc2)cc(-c2ccc(Cl)cc2)c1 [XXIII, (5-Benzyloxy-4′-chloro-biphenyl-3-yl)-acetic acid]
4.00 to 5.00 | O=C(O)Cc1cc(OCc2ccc(C(=O)N3CCCC3)cc2)cc(-c2ccc(C(F)(F)F)cc2)c1 [LV, {5-[4-(Pyrrolidine-1-carbonyl)-benzyloxy]-4′-trifluoromethyl-biphenyl-3-yl}-acetic acid]
4.00 to 5.00 | Cc1cccc(-c2cc(CC(=O)O)cc(OCc3ccccc3)c2)c1 [XXXII, (5-Benzyloxy-3′-methyl-biphenyl-3-yl)-acetic acid]
4.00 to 5.00 | O=C(O)Cc1cc(OCc2ccccc2)cc(-c2cc(F)cc(F)c2)c1 [XXVII, (5-Benzyloxy-3′,5′-difluoro-biphenyl-3-yl)-acetic acid]
3.52 to 4.00 | O=C(O)Cc1cc(OCc2ccccc2)cc(-c2ccc(O)cc2)c1 [XXV, (5-Benzyloxy-4′-hydroxy-biphenyl-3-yl)-acetic acid]
5.00 to 6.00 | O=C(O)Cc1cc(OCc2ccccc2)cc(-c2ccc(Cl)c(Cl)c2)c1 [XII, (5-Benzyloxy-3′,4′-dichloro-biphenyl-3-yl)-acetic acid]
3.52 to 4.00 | O=C(O)Cc1cc(OCc2ccccc2)cc(-c2cccc(Cl)c2)c1 [XXXVII, (5-Benzyloxy-3′-chloro-biphenyl-3-yl)-acetic acid]
4.00 to 5.00 | COc1ccccc1-c1cc(CC(=O)O)cc(OCc2ccccc2)c1 [XXX, (5-Benzyloxy-2′-methoxy-biphenyl-3-yl)-acetic acid]
5.00 to 6.00 | O=C(O)Cc1cc(OCc2cccc(C(F)(F)F)c2)cc(-c2ccc(C(F)(F)F)cc2)c1 [XLIX, [4′-Trifluoromethyl-5-(3-trifluoromethyl-benzyloxy)-biphenyl-3-yl]-acetic acid]
4.00 to 5.00 | COc1cccc(-c2cc(CC(=O)O)cc(OCc3ccccc3)c2)c1 [XIV, (5-benzyloxy-3′-methoxy-biphenyl-3-yl)-acetic Acid]
4.00 to 5.00 | Cc1ccc(-c2cc(CC(=O)O)cc(OCc3ccccc3)c2)cc1 [XXXV, (5-Benzyloxy-4′-methyl-biphenyl-3-yl)-acetic acid]
5.00 to 6.00 | O=C(O)Cc1cc(OCCc2ccccc2)cc(-c2ccc(C(F)(F)F)cc2)c1 [LI, (5-Phenethyloxy-4′-trifluoromethyl-biphenyl-3-yl)-acetic acid]
4.00 to 5.00 | O=C(O)Cc1cc(OCc2ccccc2)cc(-c2cccc(C(F)(F)F)c2)c1 [XXXIII, (5-Benzyloxy-3′-trifluoromethyl-biphenyl-3-yl)-acetic acid]
4.00 to 5.00 | O=C(O)Cc1cc(OCc2ccc(S(=O)(=O)N3CCOCC3)cc2)cc(-c2ccc(C(F)(F)F)cc2)c1 [LVI, {5-[4-(Morpholine-4-sulfonyl)-benzyloxy]-4′-trifluoromethyl-biphenyl-3-yl}-acetic acid]
4.00 to 5.00 | NC(=O)c1cccc(-c2cc(CC(=O)O)cc(OCc3ccccc3)c2)c1 [XV, (5-benzyloxy-3′-carbamoyl-biphenyl-3-yl)-acetic Acid]
4.00 to 5.00 | CS(=O)(=O)c1ccc(COc2cc(CC(=O)O)cc(-c3ccc(C(F)(F)F)cc3)c2)cc1 [IV, [5-(4-Methanesulfonyl-benzyloxy)-4′-trifluoromethyl-biphenyl-3-yl]-acetic acid]

pIC50 | SMILES
5.00 to 6.00 | O=C(O)Cc1cc(OCc2ccccc2Cl)cc(-c2ccc(C(F)(F)F)cc2)c1 [LVIII, [5-(2-Chloro-benzyloxy)-4′-trifluoromethyl-biphenyl-3-yl]-acetic acid]
4.00 to 5.00 | Cc1cc(COc2cc(CC(=O)O)cc(-c3ccc(C(F)(F)F)cc3)c2)no1 [XLIII, [5-(5-Methyl-isoxazol-3-ylmethoxy)-4′-trifluoromethyl-biphenyl-3-yl]-acetic acid]
5.00 to 6.00 | O=C(O)Cc1cc(OCc2ccc(Cl)cc2)cc(-c2ccc(C(F)(F)F)cc2)c1 [XLI, [5-(4-Chloro-benzyloxy)-4′-trifluoromethyl-biphenyl-3-yl]-acetic acid]
5.00 to 6.00 | O=C(O)Cc1cc(OCc2ccccc2C(F)(F)F)cc(-c2ccc(C(F)(F)F)cc2)c1 [L, [4′-Trifluoromethyl-5-(2-trifluoromethyl-benzyloxy)-biphenyl-3-yl]-acetic acid]
5.00 to 6.00 | O=C(O)Cc1cc(OCc2ccc(OC(F)(F)F)cc2)cc(-c2ccc(C(F)(F)F)cc2)c1 [LVII, [5-(4-Trifluoromethoxy-benzyloxy)-4′-trifluoromethyl-biphenyl-3-yl]-acetic acid]
3.52 to 4.00 | CNC(=O)c1ccc(COc2cc(CC(=O)O)cc(-c3ccc(C(F)(F)F)cc3)c2)cc1 [LIV, [5-(4-Methylcarbamoyl-benzyloxy)-4′-trifluoromethyl-biphenyl-3-yl]-acetic acid]
4.00 to 5.00 | COc1ccc(-c2cc(CC(=O)O)cc(OCc3ccccc3)c2)cc1 [XXIX, (5-Benzyloxy-4′-methoxy-biphenyl-3-yl)-acetic acid]
4.00 to 5.00 | CS(=O)(=O)c1ccc(-c2cc(CC(=O)O)cc(OCc3ccccc3)c2)cc1 [XVII, (5-benzyloxy-4′-methanesulfonyl-biphenyl-3-yl)-acetic Acid]
4.00 to 5.00 | Cc1ccccc1-c1cc(CC(=O)O)cc(OCc2ccccc2)c1 [XXXI, (5-Benzyloxy-2′-methyl-biphenyl-3-yl)-acetic acid]
4.00 to 5.00 | NS(=O)(=O)c1ccc(-c2cc(CC(=O)O)cc(OCc3ccccc3)c2)cc1 [XVIII, (5-benzyloxy-4′-sulfamoyl-biphenyl-3-yl)-acetic Acid]
5.00 to 6.00 | CC(C)c1ccc(COc2cc(CC(=O)O)cc(-c3ccc(C(F)(F)F)cc3)c2)cc1 [II, [5-(4-Isopropyl-benzyloxy)-4′-trifluoromethyl-biphenyl-3-yl]-acetic acid]
5.00 to 6.00 | Cc1ccc(COc2cc(CC(=O)O)cc(-c3ccc(C(F)(F)F)cc3)c2)cc1 [LX, [5-(4-Methyl-benzyloxy)-4′-trifluoromethyl-biphenyl-3-yl]-acetic acid]
5.00 to 6.00 | O=C(O)Cc1cc(OCc2ccccc2)cc(-c2cc(C(F)(F)F)cc(C(F)(F)F)c2)c1 [XI, (5-Benzyloxy-3′,5′-bis-trifluoromethyl-biphenyl-3-yl)-acetic acid]
4.00 to 5.00 | CC(C)Oc1cccc(-c2cc(CC(=O)O)cc(OCc3ccccc3)c2)c1 [XXVIII, (5-Benzyloxy-3′-isopropoxy-biphenyl-3-yl)-acetic acid]
4.00 to 5.00 | O=C(O)Cc1cc(OCc2ccccc2)cc(-c2cccc(O)c2)c1 [XVI, (5-benzyloxy-3′-hydroxy-biphenyl-3-yl)-acetic Acid]
4.00 to 5.00 | O=C(O)Cc1cc(OCc2ccc(C(=O)N3CCOCC3)cc2)cc(-c2ccc(C(F)(F)F)cc2)c1 [XLVIII, {5-[4-(Morpholine-4-carbonyl)-benzyloxy]-4′-trifluoromethyl-biphenyl-3-yl}-acetic acid]
5.00 to 6.00 | O=C(O)Cc1cc(OCc2ccccc2)cc(-c2cccc(OC(F)(F)F)c2)c1 [XXXVIII, (5-Benzyloxy-3′-trifluoromethoxy-biphenyl-3-yl)-acetic acid]
5.00 to 6.00 | O=C(O)Cc1cc(OCc2ccccc2)cc(-c2ccccc2)c1 [VII, (5-Benzyloxy-biphenyl-3-yl)-acetic acid]
3.52 to 4.00 | CC(=O)Nc1ccc(-c2cc(CC(=O)O)cc(OCc3ccccc3)c2)cc1 [XXIV, (4′-Acetylamino-5-benzyloxy-biphenyl-3-yl)-acetic acid]
4.00 to 5.00 | O=C(O)Cc1cc(OCc2ccccc2)cc(-c2ccc(F)cc2)c1 [XXII, (5-Benzyloxy-4′-fluoro-biphenyl-3-yl)-acetic acid]
4.00 to 5.00 | O=C(O)Cc1cc(OCc2ccccc2)cc(-c2ccccc2F)c1 [XXXIV, (5-Benzyloxy-2′-fluoro-biphenyl-3-yl)-acetic acid]
